Results from ChEMBL document CHEMBL5465560, “Selectivity Literature for EUbOPEN Chemogenomic Library” (2024).
Blank lines part the entries; values can stand above or below the compound they belong to.

Columns and labels:
[1] = target: T1, Phosphorylase b kinase gamma catalytic chain, liver/testis isoform (Homo sapiens) (UniProt P15735); test: Selectivity interaction (Kinase panel (Z-LYTE Assay)) EUB0001632a PHKG2; conditions: at 10 µM
T1 sequence (whole entry): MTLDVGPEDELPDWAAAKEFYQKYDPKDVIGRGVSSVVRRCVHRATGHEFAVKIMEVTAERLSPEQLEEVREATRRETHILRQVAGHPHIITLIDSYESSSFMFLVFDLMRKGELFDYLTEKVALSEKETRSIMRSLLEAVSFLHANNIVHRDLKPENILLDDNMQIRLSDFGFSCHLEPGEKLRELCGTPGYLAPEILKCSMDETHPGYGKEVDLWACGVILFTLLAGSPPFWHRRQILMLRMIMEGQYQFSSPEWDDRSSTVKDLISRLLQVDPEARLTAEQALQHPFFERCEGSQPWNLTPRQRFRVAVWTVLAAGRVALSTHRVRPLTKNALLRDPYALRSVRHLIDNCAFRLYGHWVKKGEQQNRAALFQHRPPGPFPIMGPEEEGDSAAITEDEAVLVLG

[2] = target: Prostacyclin receptor (Homo sapiens) (UniProt P43119); test: Selectivity interaction (Eurofins CEREP Diversity Profile (receptors and ion channels)) EUB0000279b PTGIR; conditions: at 10 µM
[3] = target: Dual specificity protein kinase CLK1 (Homo sapiens, UniProt P49759); test: Selectivity interaction (KinomeScan (DiscoverX)) EUB0000666a CLK1; conditions: at 10 µM
[4] = target: Glycogen synthase kinase-3 beta (Homo sapiens, UniProt P49841); test: Selectivity interaction (Enzymatic assay) EUB0001199aCl GSK3B
[5] = target: ALK tyrosine kinase receptor (Homo sapiens, UniProt Q9UM73); test: Selectivity interaction (KinomeScan (DiscoverX)) EUB0000607a ALK; conditions: at 10 µM
[6] = target: Homeodomain-interacting protein kinase 3 (Homo sapiens, UniProt Q9H422); test: Selectivity interaction (Kinase panel (Invitrogen)) EUB0000639a HIPK3; conditions: at 200 nM
[7] = target: Serine/threonine-protein kinase N2 (Homo sapiens, UniProt Q16513); test: Selectivity interaction (Ambit KINOMEscan and KiNATiv profiling in Jurkat cells) EUB0000090b PKN2; assay type: cell-based; conditions: at 1 µM
[8] = target: Proto-oncogene tyrosine-protein kinase Src (Homo sapiens, UniProt P12931); test: Selectivity interaction (Kinase panel (DSF assay)) EUB0001558a SRC
[9] = target: Ribosomal protein S6 kinase alpha-5 (Homo sapiens) (UniProt O75582); test: Selectivity interaction (KinomeScan (DiscoverX)) EUB0000045b RPS6KA5; conditions: at 1 µM
Focal adhesion kinase 1 = Focal adhesion kinase 1 (Homo sapiens, UniProt Q05397); test: Selectivity interaction (KinomeScan (DiscoverX)) EUB0001079a PTK2; conditions: at 1 µM
[10] = target: Histone-lysine N-methyltransferase SUV39H2 (Homo sapiens) (UniProt Q9H5I1); conditions: at 10 µM
[11] = target: T2, Histone-lysine N-methyltransferase NSD3 (Homo sapiens) (UniProt Q9BZ95); test: Selectivity interaction (Transferase panel (protein, RNA, and DNA methyltransferases. and EP300 (acetyltransferase))) EUB0000270b NSD3
T2 sequence (whole entry): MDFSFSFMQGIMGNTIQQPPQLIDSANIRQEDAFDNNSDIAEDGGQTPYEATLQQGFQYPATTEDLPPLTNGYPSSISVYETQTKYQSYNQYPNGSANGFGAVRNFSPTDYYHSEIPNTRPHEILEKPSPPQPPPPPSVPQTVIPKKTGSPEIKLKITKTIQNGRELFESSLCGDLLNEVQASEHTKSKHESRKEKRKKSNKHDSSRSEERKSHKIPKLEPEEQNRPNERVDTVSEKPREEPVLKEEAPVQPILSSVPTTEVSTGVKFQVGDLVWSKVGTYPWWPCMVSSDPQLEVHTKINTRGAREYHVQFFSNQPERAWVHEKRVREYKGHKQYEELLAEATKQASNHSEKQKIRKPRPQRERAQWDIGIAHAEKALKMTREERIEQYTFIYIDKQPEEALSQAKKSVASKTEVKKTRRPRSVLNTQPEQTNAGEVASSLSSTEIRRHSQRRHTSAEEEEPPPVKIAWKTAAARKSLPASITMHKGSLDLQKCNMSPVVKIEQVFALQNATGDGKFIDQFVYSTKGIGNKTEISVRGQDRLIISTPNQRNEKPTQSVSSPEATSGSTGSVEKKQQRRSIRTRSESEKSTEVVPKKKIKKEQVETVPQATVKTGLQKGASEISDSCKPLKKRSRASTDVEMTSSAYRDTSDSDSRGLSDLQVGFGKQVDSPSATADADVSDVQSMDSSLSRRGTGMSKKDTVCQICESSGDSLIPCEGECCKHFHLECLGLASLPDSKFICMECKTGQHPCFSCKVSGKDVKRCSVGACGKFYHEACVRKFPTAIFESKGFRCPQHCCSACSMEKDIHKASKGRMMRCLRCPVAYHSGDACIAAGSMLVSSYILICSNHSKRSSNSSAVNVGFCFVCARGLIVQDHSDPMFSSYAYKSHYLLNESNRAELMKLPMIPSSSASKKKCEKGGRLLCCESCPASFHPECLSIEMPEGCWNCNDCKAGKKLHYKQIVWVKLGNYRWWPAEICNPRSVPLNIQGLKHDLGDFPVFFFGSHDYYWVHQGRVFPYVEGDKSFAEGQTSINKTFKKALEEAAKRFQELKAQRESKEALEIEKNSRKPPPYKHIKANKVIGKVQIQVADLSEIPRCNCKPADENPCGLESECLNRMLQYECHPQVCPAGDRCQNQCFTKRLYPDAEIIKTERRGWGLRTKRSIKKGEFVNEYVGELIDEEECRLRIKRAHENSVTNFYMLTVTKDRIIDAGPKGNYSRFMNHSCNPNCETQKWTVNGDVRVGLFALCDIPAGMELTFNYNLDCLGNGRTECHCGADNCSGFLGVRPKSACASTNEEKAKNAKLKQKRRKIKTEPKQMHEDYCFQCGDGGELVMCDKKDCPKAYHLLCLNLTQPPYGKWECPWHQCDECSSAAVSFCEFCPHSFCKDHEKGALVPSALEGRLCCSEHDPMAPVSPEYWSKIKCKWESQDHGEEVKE

[12] = target: NT-3 growth factor receptor (Homo sapiens, UniProt Q16288); test: Selectivity interaction (KinomeScan (DiscoverX)) EUB0001619a NTRK3; conditions: at 1 µM

Sequence of Proto-oncogene tyrosine-protein kinase Src (P12931 2-536 limits assumed): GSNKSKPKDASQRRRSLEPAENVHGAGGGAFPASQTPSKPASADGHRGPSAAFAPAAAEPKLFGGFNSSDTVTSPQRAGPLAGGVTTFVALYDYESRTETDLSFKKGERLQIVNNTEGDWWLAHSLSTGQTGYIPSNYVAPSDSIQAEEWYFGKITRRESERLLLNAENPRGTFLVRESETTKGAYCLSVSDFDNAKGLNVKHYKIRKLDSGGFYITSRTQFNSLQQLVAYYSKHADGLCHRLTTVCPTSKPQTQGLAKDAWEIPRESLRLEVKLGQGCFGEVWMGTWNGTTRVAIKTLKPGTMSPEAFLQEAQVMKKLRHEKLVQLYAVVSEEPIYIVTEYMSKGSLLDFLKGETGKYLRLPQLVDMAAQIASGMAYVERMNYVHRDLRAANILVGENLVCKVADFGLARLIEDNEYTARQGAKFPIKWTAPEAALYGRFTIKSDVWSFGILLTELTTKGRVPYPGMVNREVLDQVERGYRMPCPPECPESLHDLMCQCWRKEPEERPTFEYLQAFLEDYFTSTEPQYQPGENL
Sequence of Dual specificity protein kinase CLK1 (P49759 whole entry, looked up): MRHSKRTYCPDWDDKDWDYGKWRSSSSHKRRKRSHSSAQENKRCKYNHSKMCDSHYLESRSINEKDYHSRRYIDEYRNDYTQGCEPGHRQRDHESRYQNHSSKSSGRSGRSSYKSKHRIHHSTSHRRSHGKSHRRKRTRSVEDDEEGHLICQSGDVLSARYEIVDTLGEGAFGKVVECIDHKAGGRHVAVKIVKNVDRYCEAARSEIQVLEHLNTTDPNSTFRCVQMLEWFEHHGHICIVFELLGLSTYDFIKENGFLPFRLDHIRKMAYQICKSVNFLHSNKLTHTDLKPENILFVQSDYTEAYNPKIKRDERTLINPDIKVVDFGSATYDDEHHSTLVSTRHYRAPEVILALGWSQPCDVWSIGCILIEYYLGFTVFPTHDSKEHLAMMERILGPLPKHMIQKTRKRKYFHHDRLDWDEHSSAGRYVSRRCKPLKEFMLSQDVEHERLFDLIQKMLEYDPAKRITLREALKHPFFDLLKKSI
Sequence of Homeodomain-interacting protein kinase 3 (Q9H422 whole entry, looked up): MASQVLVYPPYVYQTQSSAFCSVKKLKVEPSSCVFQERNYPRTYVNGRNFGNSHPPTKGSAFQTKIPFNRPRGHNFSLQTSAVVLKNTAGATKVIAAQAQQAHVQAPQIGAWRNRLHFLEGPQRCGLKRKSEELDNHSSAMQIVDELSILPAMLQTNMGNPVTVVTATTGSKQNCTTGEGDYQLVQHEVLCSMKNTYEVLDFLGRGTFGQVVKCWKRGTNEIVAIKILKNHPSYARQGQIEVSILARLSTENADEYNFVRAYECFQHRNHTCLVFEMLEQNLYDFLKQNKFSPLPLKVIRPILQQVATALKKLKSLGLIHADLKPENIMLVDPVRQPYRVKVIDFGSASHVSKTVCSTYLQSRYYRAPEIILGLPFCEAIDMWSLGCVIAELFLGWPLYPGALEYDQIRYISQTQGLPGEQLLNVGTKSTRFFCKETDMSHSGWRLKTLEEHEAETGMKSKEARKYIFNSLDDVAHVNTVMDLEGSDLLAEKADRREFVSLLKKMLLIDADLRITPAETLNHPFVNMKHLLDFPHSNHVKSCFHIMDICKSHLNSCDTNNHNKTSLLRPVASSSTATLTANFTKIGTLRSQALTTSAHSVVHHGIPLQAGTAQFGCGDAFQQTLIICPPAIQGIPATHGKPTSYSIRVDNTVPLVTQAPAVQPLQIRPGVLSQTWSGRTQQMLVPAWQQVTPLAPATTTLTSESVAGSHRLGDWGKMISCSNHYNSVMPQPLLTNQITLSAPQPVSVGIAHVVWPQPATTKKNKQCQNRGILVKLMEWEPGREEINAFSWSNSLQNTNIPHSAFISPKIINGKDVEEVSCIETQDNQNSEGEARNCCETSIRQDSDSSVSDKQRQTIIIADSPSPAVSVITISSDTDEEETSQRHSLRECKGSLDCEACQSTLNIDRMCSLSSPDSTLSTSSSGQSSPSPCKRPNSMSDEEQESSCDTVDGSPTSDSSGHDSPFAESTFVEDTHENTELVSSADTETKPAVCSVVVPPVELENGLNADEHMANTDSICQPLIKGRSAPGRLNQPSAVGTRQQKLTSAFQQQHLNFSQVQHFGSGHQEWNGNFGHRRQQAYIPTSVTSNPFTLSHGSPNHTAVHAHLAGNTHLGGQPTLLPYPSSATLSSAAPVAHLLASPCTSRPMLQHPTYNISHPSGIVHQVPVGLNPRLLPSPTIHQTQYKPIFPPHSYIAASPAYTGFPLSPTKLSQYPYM
Sequence of Glycogen synthase kinase-3 beta (P49841 whole entry): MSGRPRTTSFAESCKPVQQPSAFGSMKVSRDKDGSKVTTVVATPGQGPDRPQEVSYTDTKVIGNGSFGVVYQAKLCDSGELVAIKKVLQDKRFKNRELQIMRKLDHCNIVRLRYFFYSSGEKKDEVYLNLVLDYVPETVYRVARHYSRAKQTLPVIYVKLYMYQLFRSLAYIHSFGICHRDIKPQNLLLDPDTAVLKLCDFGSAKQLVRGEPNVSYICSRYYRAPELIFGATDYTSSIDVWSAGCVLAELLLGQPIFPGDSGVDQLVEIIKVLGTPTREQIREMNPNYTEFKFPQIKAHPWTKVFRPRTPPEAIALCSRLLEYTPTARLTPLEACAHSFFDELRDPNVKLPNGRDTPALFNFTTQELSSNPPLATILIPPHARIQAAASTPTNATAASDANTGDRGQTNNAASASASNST
Sequence of Histone-lysine N-methyltransferase SUV39H2 (Homo sapiens) (Q9H5I1 whole entry): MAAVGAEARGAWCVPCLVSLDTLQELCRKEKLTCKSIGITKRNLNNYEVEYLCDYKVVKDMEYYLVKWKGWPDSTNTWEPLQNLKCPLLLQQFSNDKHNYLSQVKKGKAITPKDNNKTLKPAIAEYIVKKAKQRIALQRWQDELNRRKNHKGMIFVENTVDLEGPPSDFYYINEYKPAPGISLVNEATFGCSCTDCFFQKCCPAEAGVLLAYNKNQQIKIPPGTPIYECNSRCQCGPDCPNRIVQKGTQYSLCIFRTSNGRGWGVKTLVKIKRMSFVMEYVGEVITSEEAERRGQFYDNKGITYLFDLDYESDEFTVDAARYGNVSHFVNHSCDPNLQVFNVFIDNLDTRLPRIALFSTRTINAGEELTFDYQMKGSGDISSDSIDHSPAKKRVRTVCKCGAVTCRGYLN
Sequence of Ribosomal protein S6 kinase alpha-5 (Homo sapiens) (O75582 whole entry, looked up): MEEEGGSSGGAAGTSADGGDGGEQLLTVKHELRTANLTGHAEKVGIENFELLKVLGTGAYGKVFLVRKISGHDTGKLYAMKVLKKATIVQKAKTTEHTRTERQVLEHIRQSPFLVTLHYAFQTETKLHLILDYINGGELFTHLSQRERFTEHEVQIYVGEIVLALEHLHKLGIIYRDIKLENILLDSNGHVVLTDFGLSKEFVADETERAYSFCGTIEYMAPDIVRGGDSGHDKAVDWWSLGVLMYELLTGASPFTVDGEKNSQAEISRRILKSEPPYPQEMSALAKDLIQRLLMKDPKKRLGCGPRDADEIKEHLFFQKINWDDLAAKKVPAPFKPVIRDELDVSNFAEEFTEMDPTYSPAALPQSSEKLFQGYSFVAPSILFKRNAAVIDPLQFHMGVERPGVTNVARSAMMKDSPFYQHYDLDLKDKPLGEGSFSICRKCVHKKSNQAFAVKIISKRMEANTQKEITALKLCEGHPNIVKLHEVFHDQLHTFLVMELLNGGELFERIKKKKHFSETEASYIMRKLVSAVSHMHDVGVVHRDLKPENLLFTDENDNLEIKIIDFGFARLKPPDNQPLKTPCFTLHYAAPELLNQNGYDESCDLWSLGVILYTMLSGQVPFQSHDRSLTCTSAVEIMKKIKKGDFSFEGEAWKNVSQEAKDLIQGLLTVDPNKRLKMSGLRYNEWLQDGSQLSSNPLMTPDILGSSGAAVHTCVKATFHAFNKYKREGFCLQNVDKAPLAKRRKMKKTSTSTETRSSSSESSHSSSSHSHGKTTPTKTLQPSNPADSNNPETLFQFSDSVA
Sequence of Focal adhesion kinase 1 (Q05397 2-1052 limits assumed): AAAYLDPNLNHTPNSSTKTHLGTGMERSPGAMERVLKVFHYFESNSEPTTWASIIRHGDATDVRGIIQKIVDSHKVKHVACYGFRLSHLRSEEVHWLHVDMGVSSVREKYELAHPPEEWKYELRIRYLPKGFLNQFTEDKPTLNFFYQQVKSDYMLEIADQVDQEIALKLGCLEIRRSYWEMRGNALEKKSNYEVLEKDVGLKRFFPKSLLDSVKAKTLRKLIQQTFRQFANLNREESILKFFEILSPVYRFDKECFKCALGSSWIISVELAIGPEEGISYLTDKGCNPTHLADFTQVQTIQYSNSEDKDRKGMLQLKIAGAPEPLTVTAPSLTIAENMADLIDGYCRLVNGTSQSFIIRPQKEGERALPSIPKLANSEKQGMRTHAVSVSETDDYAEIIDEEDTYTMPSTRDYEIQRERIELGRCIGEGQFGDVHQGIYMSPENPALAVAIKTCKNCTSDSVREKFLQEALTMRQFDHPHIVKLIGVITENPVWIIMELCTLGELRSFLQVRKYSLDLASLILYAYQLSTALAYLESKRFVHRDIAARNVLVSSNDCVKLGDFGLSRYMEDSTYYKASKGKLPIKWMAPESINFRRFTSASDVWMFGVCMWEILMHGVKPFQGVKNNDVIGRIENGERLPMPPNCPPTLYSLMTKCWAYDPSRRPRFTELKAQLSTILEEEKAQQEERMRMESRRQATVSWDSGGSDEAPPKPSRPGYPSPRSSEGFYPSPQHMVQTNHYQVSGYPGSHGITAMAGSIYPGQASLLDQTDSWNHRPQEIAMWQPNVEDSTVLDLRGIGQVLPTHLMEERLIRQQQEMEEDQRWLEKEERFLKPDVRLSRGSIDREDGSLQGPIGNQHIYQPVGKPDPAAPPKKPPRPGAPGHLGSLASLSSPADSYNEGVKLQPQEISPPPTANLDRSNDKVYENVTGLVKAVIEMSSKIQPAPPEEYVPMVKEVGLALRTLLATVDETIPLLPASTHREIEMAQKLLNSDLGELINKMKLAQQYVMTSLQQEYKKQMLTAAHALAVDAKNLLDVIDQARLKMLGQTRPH

% of control [1]: 4.25%
Structure (SMILES): Cn1cc(-n2cnc3c(NCc4nc5cc(Cl)c(Cl)cc5[nH]4)nc(N4CCOCC4)nc32)cn1

% of control [2]: 108%
Structure (SMILES): CC(=O)c1cc(-c2ccccc2OCC2CC2)c2ncccn12

Structure (SMILES): O=C(NOC[C@H](O)CO)c1ccc(F)c(F)c1Nc1ccc(I)cc1F
% of control [3]: 95%

IC50 [4]: 10 µM
Structure (SMILES): CN1Cc2nccc(-c3cn(C)nc3-c3ccc(F)cc3)c2C1=O

Structure (SMILES): CNC(=O)Nc1ccc(-c2nc(N3CC4CCC(C3)O4)c3cnn(C4CCC5(CC4)OCCO5)c3n2)cc1
% of control [5]: 42%

% of inhibition [6]: 5.1%
Structure (SMILES): CC[C@@H]1[C@H](F)C(=O)N[C@@H]1COc1nccc2cc(C(N)=O)c(OC)cc12 [ZIMLOVISERTIB]

Structure (SMILES): CN(C)C/C=C/C(=O)Nc1ccc(C(=O)N2CCCC(Nc3ncc(Cl)c(-c4c[nH]c5ccccc45)n3)C2)cc1 (centres undefined)
% of control [7]: 98%

Structure (SMILES): CC(C)(O)[C@H](F)CN1Cc2cc(NC(=O)c3cnn4cccnc34)c(N3CCOCC3)cc2C1=O
dTM [8]: 2 K

Structure (SMILES): C=CC(=O)Nc1cc(-n2c(=O)ccc3cnc4ccc(-c5ccc(NS(C)(=O)=O)cc5)cc4c32)ccc1C
% of control [9]: 95%

Structure (SMILES): Nc1cnc(N2CCc3cc(S(=O)(=O)Nc4c(F)cc(Cl)cc4F)cc(N4CCCC4=O)c32)nc1 [TP-020n]
% of control (Focal adhesion kinase 1): 99%

% activity [10]: > 90%
Structure (SMILES): CNCCN1CCC(c2cc(CN(C)C(=O)c3cccc(Oc4ccccc4)c3)ccn2)CC1

% activity ([11]; at 1 µM): > 90%
% activity ([11]; at 10 µM): > 80%
Structure (SMILES): Cc1cc(CN)cc(C)c1-c1ncn(C)c1-c1cncn1C

Structure (SMILES): N#Cc1cccc(-c2c[nH]c3ncnc(N4CCOCC4)c23)c1
% of control [12]: 84%
